From US8993589B2, “Imidazopyridine derivatives which inhibit the secretion of gastric acid” (priority 2008, dated 2015) come the findings set out here.

The assay deals with acid secretion in female rats. Nature of the assay: Inhibiting effect on acid secretion in female rats. Conditions: rats administered 1 μmol/kg. It is filed as in vivo, rat (Sprague-Dawley. Here is the method:
Inhibiting Effect on Acid Secretion in Female Rats
Female rats of the Sprague-Dawley strain were used. They were equipped with cannulated fistulae in the stomach (lumen) and the upper part of the duodenum, for collection of gastric secretions and administration of test substances, respectively. A recovery period of 14 days after surgery was allowed before testing commenced.
Before secretory tests, the animals were deprived of food but not water for 20 h. The stomach was repeatedly washed through the gastric cannula with tap water (+37° C.), and 6 ml Ringer-Glucose given subcutaneously. […] Gastric juice samples were titrated to pH 7.0 with NaOH, 0.1M, and acid output calculated as the product of titrant volume and concentration.
Further calculations were based on group mean responses from 4-6 rats. In the case of administration during stimulation, the acid output during the periods after administration of test substance or vehicle were expressed as fractional responses, setting the acid output in the 30-min period preceding administration to 1.0. Percentage inhibition was calculated from the fractional responses elicited by test compound and vehicle. In the case of administration before stimulation, percentage inhibition was calculated directly from acid output recorded after test compound and vehicle. […]

With `Cc1cccc(C)c1CNc1cc(C(=O)NCCOC(=O)CCCC(=O)O)cn2c(C)c(C)nc12` [Example 1, 5-{2-[({8-[(2,6-dimethylbenzyl)amino]-2,3-dimethylimidazo[1,2-a]pyridin-6-yl}carbonyl)amino]ethoxy}-5-oxopentanoic acid], the “maximal inhibition of acid secretion” value amounted to 100%.

With `Cc1cccc(C)c1CNc1cc(C(=O)NCCOC(=O)CCC(=O)O)cn2c(C)c(C)nc12` [Example 2, 4-{2-[({8-[(2,6-dimethylbenzyl)amino]-2,3-dimethylimidazo[1,2-a]pyridin-6-yl}carbonyl)amino]ethoxy}-4-oxobutanoic acid], the “maximal inhibition of acid secretion” value was 70%.
